# Data as given in patent US9416124B2, “Substituted 2-alkyl-1-OXO-N-phenyl-3-heteroaryl-1,2,3,4-tetrahydroisoquinoline-4-carboxamides for antimalarial therapies” (ST. JUDE CHILDREN'S RESEARCH HOSPITAL, priority 2011, dated 2016).
# Test system: P. falciparum 3D7
# Assay: P. falciparum drug susceptibility assay (3D7)
# Assay type: cell-based, Plasmodium falciparum
# Details: Plasmodium falciparum; 3D7 strain; racemate unless indicated; read-out: 3D7_EC50
# Procedure: Parasites were grown as previously described in Mallari, J. P., Guiguemde, W. A., and Guy, R. K., Antimalarial activity of thiosemicarbazones and purine derived nitriles, Bioorg Med Chem Lett 19 (13), 3546 (2009). […] DMSO inhibitor stock solutions were pin-transferred (V&P Scientific) into the assay plate and background fluorescence was measured in both relevant channels (485 nm /535 nm, 612 nm /665 nm) in an Envision plate reader (PerkinElmer). Then 20 μl of a synchronized culture suspension (1% rings, 10% hematocrit) were added per well, thus making a final hematocrit and parasitemia of 5% and 1% respectively. Assay plates were incubated for 72 h and parasitemia was determined based on a modified protocol. (Smilkstein, M. et al., Simple and inexpensive fluorescence-based technique for high-throughput antimalarial drug screening. Antimicrob Agents Chemother 48 (5), 1803 (2004)). Briefly, 5 μl of mixed DNA dye solution in RPMI (5X SYBR Green I, 1 μM YOYO-3, 1% v/v Triton X-100, 1 mg/ml saponin) were added per well, assay plates were shaken for 30 s at 2000 rpm, incubated in the dark for 4 h, then read as previously described.
row,SMILES,EC50
1,"N#Cc1cc(NC(=O)[C@H]2c3ccccc3C(=O)N(CC(F)(F)F)[C@@H]2c2cccnc2)ccc1F (racemic) [Example 6, N-(3-cyano-4-fluorophenyl)-1-oxo-3-(pyridin-3-yl)-2-(2,2,2-trifluoroethyl)-1,2,3,4-tetrahydroisoquinoline-4-carboxamide]",54 nM
2,"CC(C)CN1C(=O)c2ccccc2[C@H](C(=O)Nc2ccc(F)c(OC(F)(F)F)c2)[C@H]1c1cccnc1 (racemic) [Example 35, N-(4-fluoro-3-(trifluoromethoxy)phenyl)-2-isobutyl-1-oxo-3-(pyridin-3-yl)-1,2,3,4-tetrahydroisoquinoline-4-carboxamide]",63 nM
3,"O=C(Nc1ccc(F)c(OC(F)(F)F)c1)[C@H]1c2ccccc2C(=O)N(CC(F)(F)F)[C@@H]1c1cccnc1 (racemic) [Example 36, N-(4-fluoro-3-(trifluoromethoxy)phenyl)-1-oxo-3-(pyridin-3-yl)-2-(2,2,2-trifluoroethyl)-1,2,3,4-tetrahydroisoquinoline-4-carboxamide]",89 nM
4,"CC(C)CN1C(=O)c2ccccc2[C@H](C(=O)Nc2cc(Cl)cc(C#N)c2)[C@H]1c1cnn(C)c1 (racemic) [Example 9, N-(3-chloro-5-cyanophenyl)-2-isobutyl-3-(1-methyl-1H-pyrazol-4-yl)-1-oxo-1,2,3,4-tetrahydroisoquinoline-4-carboxamide]",8 nM
5,"CC(C)CN1C(=O)c2ccccc2[C@H](C(=O)Nc2cccc(C#N)c2)[C@H]1c1cn[nH]c1 (racemic) [Example 13, N-(3-cyanophenyl)-2-isobutyl-1-oxo-3-(1H-pyrazol-4-yl)-1,2,3,4-tetrahydroisoquinoline-4-carboxamide]",7 nM
6,"O=C(Nc1cc(F)cc(OC(F)(F)F)c1)[C@H]1c2ccccc2C(=O)N(CC(F)(F)F)[C@@H]1c1cn[nH]c1 (racemic) [Example 38, N-(3-fluoro-5-(trifluoromethoxy)phenyl)-1-oxo-3-(1H-pyrazol-4-yl)-2-(2,2,2-trifluoroethyl)-1,2,3,4-tetrahydroisoquinoline-4-carboxamide]",61 nM
7,"N#Cc1cccc(NC(=O)[C@H]2c3ccccc3C(=O)N(CC(F)(F)F)[C@@H]2c2cccnc2)c1 (racemic) [Example 18, N-(3-cyanophenyl)-1-oxo-3-(pyridin-3-yl)-2-(2,2,2-trifluoroethyl)-1,2,3,4-tetrahydroisoquinoline-4-carboxamide]",24 nM
8,"CC(C)CN1C(=O)c2cc(F)ccc2[C@H](C(=O)Nc2cc(Cl)cc(C#N)c2)[C@H]1c1cnn(C)c1 (racemic) [Example 46, N-(3-chloro-5-cyanophenyl)-7-fluoro-2-isobutyl-3-(1-methyl-1H-pyrazol-4-yl)-1-oxo-1,2,3,4-tetrahydroisoquinoline-4-carboxamide]",3 nM
9,"CC(C)CN1C(=O)c2ccccc2[C@H](C(=O)Nc2cc(Cl)cc(C#N)c2)[C@H]1c1cccnc1 (racemic) [Example 11, N-(3-chloro-5-cyanophenyl)-2-isobutyl-1-oxo-3-(pyridin-3-yl)-1,2,3,4-tetrahydroisoquinoline-4-carboxamide]",20 nM
10,"Cn1cc([C@@H]2[C@@H](C(=O)Nc3cc(Cl)cc(C#N)c3)c3ccccc3C(=O)N2CC(F)(F)F)cn1 (racemic) [Example 10, N-(3-chloro-5-cyanophenyl)-3-(1-methyl-1H-pyrazol-4-yl)-1-oxo-2-(2,2,2-trifluoroethyl)-1,2,3,4-tetrahydroisoquinoline-4-carboxamide]",6 nM
11,"CC(C)CN1C(=O)c2ccc(F)cc2[C@H](C(=O)Nc2cc(F)cc(C#N)c2)[C@H]1c1ccc(C#N)s1 (racemic) [Example 51, N-(3-cyano-5-fluorophenyl)-3-(5-cyanothiophen-2-yl)-6-fluoro-2-isobutyl-1-oxo-1,2,3,4-tetrahydroisoquinoline-4-carboxamide]",5 nM
12,"CC(C)CN1C(=O)c2ccccc2[C@H](C(=O)Nc2cc(F)cc(C#N)c2)[C@H]1c1cccnc1 (racemic) [Example 23, N-(3-cyano-5-fluorophenyl)-2-isobutyl-1-oxo-3-(pyridin-3-yl)-1,2,3,4-tetrahydroisoquinoline-4-carboxamide]",20 nM
